Data published in article PMC8909834, “An Orally Bioavailable and Highly Efficacious Inhibitor of CDK9/FLT3 for the Treatment of Acute Myeloid Leukemia” (Cancers, 2022).

Tests used:
HL60 = experiment: Cell viability assay (resazurin); format: cell-based; details: Homo sapiens, HL-60; HL60, 72 h, mean ± SD
Description: (§1) Cell culture. MV4-11, HL60, K-562, THP-1, MO91, and U937 cell lines were from the ATCC (Rockville, MD, USA); MOLM-13, NB4, and PL21 cell lines were from the DSMZ (Braunschweig, Germany); and Jurkat cells were from the ECACC (Salisbury, UK). All cells were cultured in RPMI medium (Sigma-Aldrich) supplemented with 10% to 20% of heat-inactivated fetal bovine serum (Sigma-Aldrich), and cells were maintained at 37 °C, 5% CO2, and 95% humidity. All the cell lines were tested to be mycoplasma-negative using MycoAlert^TM mycoplasma detection kit (Lonza, Derrimut, VIC, Australia).
(§2) Cell viability assay. The viability of leukemia cell lines after incubation with CDDD11-8 was determined by their ability to reduce resazurin, as described previously. Cells (5 × 10^3) were seeded into 96-well plates (Corning Inc., Corning, NY, USA) and incubated overnight at 37 °C. Subsequently, they were incubated with CDDD11-8 (concentrations ranging from 0.003 µM to 31.6 µM; using three-fold serial dilutions) or DMSO (final concentration of 0.1%) for 72 h. Afterwards, cells were incubated with 20 µL of resazurin (0.1 mg/mL in PBS) for 4 h at 37 °C under 5% CO2, and the fluorescence intensities were measured using an EnVision® multilabel plate reader at 570 nm (excitation)/585 nm (emission). The concentration required to inhibit cellular growth by 50% (GI50) was determined using the same non-linear regression model as shown above, with Ar (%) = % cell viability, and IC50 replaced with GI50.

JURKAT = experiment: Cell viability assay (resazurin); format: cell-based; details: Homo sapiens, 72 h, mean ± SD
Description: as §1, §2

K-562 = experiment: Cell viability assay (resazurin); format: cell-based; details: Homo sapiens, K562; K-562, 72 h, mean ± SD
Description: as §1, §2

MOLM-13 = experiment: Cell viability assay (resazurin); format: cell-based; details: MOLM-13, 72 h, mean ± SD
Description: as §1, §2

NB4 = experiment: Cell viability assay (resazurin); format: cell-based; details: Homo sapiens, NB-4; NB4, 72 h, mean ± SD
Description: as §1, §2

PL21 = experiment: Cell viability assay (resazurin); format: cell-based; details: PL21, 72 h, mean ± SD
Description: as §1, §2

THP-1 = experiment: Cell viability assay (resazurin); format: cell-based; details: THP-1, 72 h, mean ± SD
Description: as §1, §2

U937 = experiment: Cell viability assay (resazurin); format: cell-based; details: Homo sapiens, U-937; U937, 72 h, mean ± SD
Description: as §1, §2

MV4-11 tumors = experiment: In vivo target engagement (western blot of tumor lysates); design: species or system mice; details: 75 and 125 mg/kg orally for 5 days, 4 h post final dose
Description: Western blotting. Western blotting was performed as described previously. Briefly, cells were lysed after incubation with different concentrations of compounds or control (0.1% DMSO) at the indicated times, samples were denatured at 95 °C for 5 min, and proteins having different molecular weights within each sample were separated by electrophoresis (Bio-Rad, Hercules, CA, USA) on polyacrylamide gels (4–20%, Bio-Rad). Resolved proteins were electrophoretically transferred onto a PVDF membrane and blocked by incubating with 10% w/v non-fat powdered milk dissolved in 1 × Tris-buffered saline-tween 20 (TBST) for 1 h at room temperature prior to incubating overnight with primary antibodies at 4 °C with slight shaking. Chemiluminescence was detected with a ChemiDoc^TM gel imaging system after the membranes have been exposed to ECL substrates (GE Healthcare, PA, USA), and the Image Lab software (Bio-Rad) was used for image capture. […] Bands were quantified using ImageJ software (US National Institutes of Health, Bethesda, MD, USA). […]

Cc1cnc(N[C@H]2CC[C@H](N)CC2)nc1-c1cnc2ccc(-c3ccccc3)cn12 [CDDD11-8]
GI50 (HL60): 475 ± 25 nM
GI50 (JURKAT): 599 ± 90 nM
GI50 (K-562): 1500 ± 47 nM
GI50 (MOLM-13; Homo sapiens): < 100 nM
GI50 (MOLM-13): 70 ± 20 nM
GI50 (NB4): 473 ± 107 nM
GI50 (PL21): 339 ± 34 nM
GI50 (PL21; PL-21, 72 h): 340 nM
GI50 (THP-1; Homo sapiens): 460 nM
GI50 (THP-1): 459 ± 40 nM
GI50 (U937): 713 ± 93 nM
level of MCL1 in tumors (MV4-11 tumors): greatly reduced
phosphorylation of FLT3 at Tyr591 and STAT5 at Tyr 694 in tumors (MV4-11 tumors): reduced
phosphorylation of RNAPII at Ser2 and Ser5 in tumors (MV4-11 tumors): potently inhibited
